Assays:
αLβ2/ICAM-1 = target: T1, αLβ2/ICAM-1 (Homo sapiens, UniProt P05107+P20701); test: Static cell adhesion assay, HSB cells on ICAM-1 (LFA-1; LAD); format: cell-based; conditions: RFU of compound / RFU of THI0349, both at the same concentration
T1 construct: The Jurkat (VCAM-1 assays) and HSB (ICAM-1 assays) cell lines were obtained from American Type Culture Collection; endogenous in cells; host or cells: HSB (ATCC)
Procedure, shortened: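 HSB cells were labeled with calcein-AM for 30 minutes, washed, resuspended in binding buffer (PBS with 2 mM MgCl2, 5 mM EGTA, 50% FBS) and plated at 2×10^5 cells/well in triplicate onto 96-well plates coated overnight at 4° C with ICAM-1 (5 μg/mL in 50 μL TBS) and blocked with 2% BSA. Compounds were tested in 1% DMSO. After 30 minutes at 37° C and three washes, adherent cells were lysed and fluorescence was read; results are compound RFU divided by THI0349 RFU.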

α4β1/VCAM-1 = target: T2, α4β1/VCAM-1 (Homo sapiens, UniProt P05556+P13612); test: Static cell adhesion assay, Jurkat cells on VCAM-1 (VLA-4 agonist activity); format: cell-based; conditions: EC50 relative to THI0349 (average 11 uM) run on the same plate; Jurkat cells, 50% FBS
T2 construct: The Jurkat (VCAM-1 assays) and HSB (ICAM-1 assays) cell lines were obtained from American Type Culture Collection; endogenous in cells; host or cells: Jurkat (ATCC)
T2 sequence (P13612 34-1032): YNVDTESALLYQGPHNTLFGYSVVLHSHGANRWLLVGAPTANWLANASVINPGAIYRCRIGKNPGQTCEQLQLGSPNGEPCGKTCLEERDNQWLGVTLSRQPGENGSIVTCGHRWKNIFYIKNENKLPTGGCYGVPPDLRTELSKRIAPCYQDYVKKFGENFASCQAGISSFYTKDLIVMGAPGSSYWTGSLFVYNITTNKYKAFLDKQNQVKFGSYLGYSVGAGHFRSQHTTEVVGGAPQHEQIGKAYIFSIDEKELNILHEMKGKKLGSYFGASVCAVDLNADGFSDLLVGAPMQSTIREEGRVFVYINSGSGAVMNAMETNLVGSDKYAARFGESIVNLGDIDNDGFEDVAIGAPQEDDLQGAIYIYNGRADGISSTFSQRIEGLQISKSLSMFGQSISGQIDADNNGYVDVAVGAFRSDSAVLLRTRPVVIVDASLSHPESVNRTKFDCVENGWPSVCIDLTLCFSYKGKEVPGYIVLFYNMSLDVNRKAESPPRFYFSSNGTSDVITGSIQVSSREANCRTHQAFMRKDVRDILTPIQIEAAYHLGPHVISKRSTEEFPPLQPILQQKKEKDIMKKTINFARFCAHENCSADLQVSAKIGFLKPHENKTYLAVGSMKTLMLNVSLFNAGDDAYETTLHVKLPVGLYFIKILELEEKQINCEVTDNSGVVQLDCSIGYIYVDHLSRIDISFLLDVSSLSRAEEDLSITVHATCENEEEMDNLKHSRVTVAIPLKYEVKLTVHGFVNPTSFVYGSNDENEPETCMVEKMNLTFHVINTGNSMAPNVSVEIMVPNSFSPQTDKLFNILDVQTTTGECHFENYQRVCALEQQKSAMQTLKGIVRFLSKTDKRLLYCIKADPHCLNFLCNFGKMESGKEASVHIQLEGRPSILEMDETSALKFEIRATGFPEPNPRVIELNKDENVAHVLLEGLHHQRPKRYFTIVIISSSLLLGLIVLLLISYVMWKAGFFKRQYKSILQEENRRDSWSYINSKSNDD
T2 sequence (P05556 21-798): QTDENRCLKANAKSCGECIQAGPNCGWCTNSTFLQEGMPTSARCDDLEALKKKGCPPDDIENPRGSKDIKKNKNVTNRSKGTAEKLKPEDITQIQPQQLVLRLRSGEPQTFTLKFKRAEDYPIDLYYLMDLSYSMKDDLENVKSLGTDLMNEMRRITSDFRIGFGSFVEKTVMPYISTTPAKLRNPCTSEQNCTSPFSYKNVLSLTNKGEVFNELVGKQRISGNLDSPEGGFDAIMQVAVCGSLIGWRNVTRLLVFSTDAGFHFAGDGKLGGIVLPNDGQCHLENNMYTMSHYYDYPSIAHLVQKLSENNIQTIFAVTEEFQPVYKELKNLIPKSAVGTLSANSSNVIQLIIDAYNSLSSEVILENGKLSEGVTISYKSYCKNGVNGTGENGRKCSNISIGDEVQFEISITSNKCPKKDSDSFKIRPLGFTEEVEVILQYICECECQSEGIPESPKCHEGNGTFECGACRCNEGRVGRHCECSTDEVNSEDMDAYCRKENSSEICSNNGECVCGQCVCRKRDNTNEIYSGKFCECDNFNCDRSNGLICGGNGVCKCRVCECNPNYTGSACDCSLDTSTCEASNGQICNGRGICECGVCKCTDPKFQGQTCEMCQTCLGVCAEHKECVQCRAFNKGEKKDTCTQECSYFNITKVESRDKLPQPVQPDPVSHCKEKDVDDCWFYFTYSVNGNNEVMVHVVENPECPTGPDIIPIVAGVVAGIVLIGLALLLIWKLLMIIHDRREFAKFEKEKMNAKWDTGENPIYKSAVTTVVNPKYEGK
Procedure, shortened: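 Calcein-labelled Jurkat cells (2×10^5/well) were added to wells coated with a sub-optimal level of human VCAM-1 (0.5 μg/mL) in PBS, 1 mM MgCl2, 50% FBS with compound in 1% DMSO. After 30 min at 37° C. and washing, adherent-cell fluorescence was read. EC50 was the concentration giving 50% of maximal response.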

T1 sequence (P20701 26-1170): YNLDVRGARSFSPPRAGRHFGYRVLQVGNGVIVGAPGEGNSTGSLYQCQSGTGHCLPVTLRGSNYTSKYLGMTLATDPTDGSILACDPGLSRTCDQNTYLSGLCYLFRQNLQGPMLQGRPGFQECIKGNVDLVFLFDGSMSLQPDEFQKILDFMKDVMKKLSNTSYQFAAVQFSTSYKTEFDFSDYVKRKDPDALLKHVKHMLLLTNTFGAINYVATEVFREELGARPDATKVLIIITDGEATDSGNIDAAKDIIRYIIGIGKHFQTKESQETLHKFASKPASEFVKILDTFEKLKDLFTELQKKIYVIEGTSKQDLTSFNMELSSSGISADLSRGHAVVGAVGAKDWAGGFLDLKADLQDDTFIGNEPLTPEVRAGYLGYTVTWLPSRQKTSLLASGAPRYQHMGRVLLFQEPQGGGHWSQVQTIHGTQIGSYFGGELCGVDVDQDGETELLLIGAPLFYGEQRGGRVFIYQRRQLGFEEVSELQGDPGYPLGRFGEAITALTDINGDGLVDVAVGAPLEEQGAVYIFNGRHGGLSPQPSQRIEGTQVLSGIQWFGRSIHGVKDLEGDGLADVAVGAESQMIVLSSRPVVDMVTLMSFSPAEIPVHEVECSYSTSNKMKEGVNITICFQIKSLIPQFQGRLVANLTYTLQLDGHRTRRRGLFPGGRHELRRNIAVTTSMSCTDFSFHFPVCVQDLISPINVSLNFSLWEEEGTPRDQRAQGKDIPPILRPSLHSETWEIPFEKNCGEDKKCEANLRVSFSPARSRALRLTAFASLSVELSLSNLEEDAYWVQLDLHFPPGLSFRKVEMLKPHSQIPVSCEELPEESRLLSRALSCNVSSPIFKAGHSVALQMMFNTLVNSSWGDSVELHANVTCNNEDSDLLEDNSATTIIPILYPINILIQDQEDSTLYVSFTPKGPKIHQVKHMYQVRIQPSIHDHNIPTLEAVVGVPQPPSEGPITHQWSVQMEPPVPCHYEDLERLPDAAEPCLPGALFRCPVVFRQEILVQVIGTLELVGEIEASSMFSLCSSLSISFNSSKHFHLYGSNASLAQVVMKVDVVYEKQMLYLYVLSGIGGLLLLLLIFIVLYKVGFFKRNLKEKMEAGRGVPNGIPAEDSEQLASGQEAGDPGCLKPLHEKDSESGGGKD
T1 sequence (P05107 23-769): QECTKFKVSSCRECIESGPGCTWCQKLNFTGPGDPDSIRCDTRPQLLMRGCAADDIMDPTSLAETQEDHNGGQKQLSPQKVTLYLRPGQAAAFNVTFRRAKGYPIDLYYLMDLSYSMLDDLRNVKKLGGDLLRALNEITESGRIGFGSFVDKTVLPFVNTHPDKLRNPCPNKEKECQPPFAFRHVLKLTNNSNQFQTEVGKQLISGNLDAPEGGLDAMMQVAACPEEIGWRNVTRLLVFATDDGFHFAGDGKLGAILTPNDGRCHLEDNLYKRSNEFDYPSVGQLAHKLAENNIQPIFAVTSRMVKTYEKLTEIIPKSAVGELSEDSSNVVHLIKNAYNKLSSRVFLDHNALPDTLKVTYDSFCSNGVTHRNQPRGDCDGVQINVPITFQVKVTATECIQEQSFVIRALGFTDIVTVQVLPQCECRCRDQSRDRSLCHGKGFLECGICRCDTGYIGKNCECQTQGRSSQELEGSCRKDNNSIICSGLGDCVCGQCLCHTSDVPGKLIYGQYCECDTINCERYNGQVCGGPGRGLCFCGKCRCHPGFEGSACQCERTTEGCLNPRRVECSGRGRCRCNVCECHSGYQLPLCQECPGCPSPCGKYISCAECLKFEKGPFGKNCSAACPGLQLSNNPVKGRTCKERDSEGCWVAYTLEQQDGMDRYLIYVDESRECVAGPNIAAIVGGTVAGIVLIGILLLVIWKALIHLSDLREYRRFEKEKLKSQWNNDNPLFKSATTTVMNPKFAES

Row | SMILES | LAD Raw Fluorescence Units against LFA-1; Dose 3 µM; Ratio of raw counts Compound/THI0349 (αLβ2/ICAM-1) | Group against VCAM (α4β1/VCAM-1)
1 | COc1cccc(CN(Cc2cccc(OC)c2)c2nc3c(s2)CN(C(=O)OC(C)(C)C)CC3)c1 [Compound 70, tert-butyl 2-(bis(3-methoxybenzyl)amino)-6,7-dihydrothiazolo[5,4-c]pyridine-5(4H)-carboxylate] | 0.14 | III (Group III more than five times the EC50 of THI0349)
2 | COc1ccc(CCc2csc(N(Cc3cccc(OC)c3)Cc3cccc(OC)c3)n2)cc1 [Compound 71, N,N-bis(3-methoxybenzyl)-4-(4-methoxyphenethyl)thiazol-2-amine] | 0.1 | III (Group III more than five times the EC50 of THI0349)
3 | COc1cccc(CN(Cc2ccc(-n3cccn3)cc2)c2nc(CN3CCOCC3)cs2)c1 [Compound 75, N-(4-(1H-pyrazol-1-yl)benzyl)-N-(3-methoxybenzyl)-4-(morpholinomethyl)thiazol-2-amine] | 0.59 | I (Group I maintains at least the same potency or better up to more than twice that of the EC50 of THI0349 ran on the same plate)
4 | COc1cccc(CN(Cc2cccc(OC)c2)c2nc(COCCN(C)C)cs2)c1 [Compound 82, 4-((2-(dimethylamino)ethoxy)methyl)-N,N-bis(3-methoxybenzyl)thiazol-2-amine] | 0.05 | II (Group II is more than twice that of THI0349 but less than five times THI0349's EC50)
5 | CCOC(=O)c1ccc(N(Cc2cccc(OC)c2)Cc2cccc(OC)c2)cc1 [Compound 85, ethyl 4-(bis(3-methoxybenzyl)amino)benzoate] | 0.03 | III (Group III more than five times the EC50 of THI0349)
6 | COc1cccc(CN(Cc2cccc(OC)c2)c2nc(COCCN3CCc4ccccc43)cs2)c1 [Compound 88, 4-((2-(indolin-1-yl)ethoxy)methyl)-N,N-bis(3-methoxybenzyl)thiazol-2-amine] | 0.18 | II (Group II is more than twice that of THI0349 but less than five times THI0349's EC50)
7 | COc1cccc(COCc2ccc(N(Cc3cccc(OC)c3)Cc3cccc(OC)c3)cc2)c1 [Compound 89, N,N-bis(3-methoxybenzyl)-4-((3-methoxybenzyloxy)methyl)aniline] | 0.34 | III (Group III more than five times the EC50 of THI0349)
8 | COc1cccc(COCc2cccc(N(Cc3cccc(OC)c3)Cc3cccc(OC)c3)c2)c1 [Compound 90, N,N-bis(3-methoxybenzyl)-3-(((3-methoxybenzyl)oxy)methyl)aniline] | 0.09 | III (Group III more than five times the EC50 of THI0349)
9 | COc1cccc(COc2ccc(N(Cc3cccc(OC)c3)Cc3cccc(OC)c3)cc2)c1 [Compound 91, N,N-bis(3-methoxybenzyl)-4-((3-methoxybenzyl)oxy)aniline] | 0.09 | III (Group III more than five times the EC50 of THI0349)

The next lines start with results.

Row | LAD Raw Fluorescence Units against LFA-1; Dose 3 µM; Ratio of raw counts Compound/THI0349 (αLβ2/ICAM-1) | SMILES | Group against VCAM (α4β1/VCAM-1)
10 | 0.12 | COc1cccc(CN(Cc2cccc(N(C)C)c2)c2nc(CN3CCOCC3)cs2)c1 [Compound 73, N-(3-(dimethylamino)benzyl)-N-(3-methoxybenzyl)-4-(morpholinomethyl)thiazol-2-amine] | II (Group II is more than twice that of THI0349 but less than five times THI0349's EC50)
11 | 0.3 | COCCOc1cccc(CN(Cc2cccc(OC)c2)c2nc(CN3CCOCC3)cs2)c1 [Compound 74, N-(3-methoxybenzyl)-N-(3-(2-methoxyethoxy)benzyl)-4-(morpholinomethyl)thiazol-2-amine] | I (Group I maintains at least the same potency or better up to more than twice that of the EC50 of THI0349 ran on the same plate)
12 | 0.31 | COc1cccc(CN(Cc2ccc3ncccc3c2)c2nc(CN3CCOCC3)cs2)c1 [Compound 76, N-(3-methoxybenzyl)-4-(morpholinomethyl)-N-(quinolin-6-ylmethyl)thiazol-2-amine] | II (Group II is more than twice that of THI0349 but less than five times THI0349's EC50)
13 | 0.34 | COc1cccc(CN(Cc2ccc3[nH]ncc3c2)c2nc(CN3CCOCC3)cs2)c1 [Compound 77, N-((1H-indazol-5-yl)methyl)-N-(3-methoxybenzyl)-4-(morpholinomethyl)thiazol-2-amine] | II (Group II is more than twice that of THI0349 but less than five times THI0349's EC50)
14 | 0.4 | COc1cccc(CN(Cc2cccc(N3CCOCC3)c2)c2nc(CN3CCOCC3)cs2)c1 [Compound 78, N-(3-methoxybenzyl)-N-(3-morpholinobenzyl)-4-(morpholinomethyl)thiazol-2-amine] | II (Group II is more than twice that of THI0349 but less than five times THI0349's EC50)
15 | 0.32 | COc1cccc(CN(Cc2cccc(-n3ccnc3)c2)c2nc(CN3CCOCC3)cs2)c1 [Compound 79, N-(3-(1H-imidazol-1-yl)benzyl)-N-(3-methoxybenzyl)-4-(morpholinomethyl)thiazol-2-amine] | II (Group II is more than twice that of THI0349 but less than five times THI0349's EC50)
16 | 0.53 | COc1cccc(CN(Cc2cccc(-n3cccn3)c2)c2nc(CN3CCOCC3)cs2)c1 [Compound 80, N-(3-(1H-pyrazol-1-yl)benzyl)-N-(3-methoxybenzyl)-4-(morpholinomethyl)thiazol-2-amine] | I (Group I maintains at least the same potency or better up to more than twice that of the EC50 of THI0349 ran on the same plate)
17 | 0.36 | COc1cccc(CN(Cc2cccc(OC)c2)c2nc(CN3CCOCC3)co2)c1 [Compound 81, N,N-bis(3-methoxybenzyl)-4-(morpholinomethyl)oxazol-2-amine] | II (Group II is more than twice that of THI0349 but less than five times THI0349's EC50)
18 | 0.14 | COc1cccc(CN(Cc2cccc(OC)c2)c2nc(CCN3CCOCC3)cs2)c1 [Compound 84, N,N-bis(3-methoxybenzyl)-4-(2-morpholinoethyl)thiazol-2-amine] | I (Group I maintains at least the same potency or better up to more than twice that of the EC50 of THI0349 ran on the same plate)
19 | 0.2 | COc1cccc(CN(Cc2cccc(OC)c2)c2nc(COCCN3CCOCC3)co2)c1 [Compound 87, N,N-bis(3-methoxybenzyl)-4-((2-morpholinoethoxy)methyl)oxazol-2-amine] | I (Group I maintains at least the same potency or better up to more than twice that of the EC50 of THI0349 ran on the same plate)
